Experimental data as given in patent US20250019385A1, “SPIROCYCLIC ANNULATED 2-AMINO-3-CYANO THIOPHENES AND DERIVATIVES FOR THE TREATMENT OF CANCER” (Boehringer Ingelheim International GmbH, priority 2023, published 2025).

What follows are compounds tested against KRAS (G12V)::CRAF protein::protein interaction (Homo sapiens (Human), UniProt P01116, C118S/G12V) (assay: KRAS TR-FRET assay (KRAS G12V::CRAF, GTP)). Settings: not given.
Type: binding
Method: (§1) This assay measures the inhibitory effect of compounds on KRAS::CRAF protein::protein interactions in the presence of GTP using Time-resolved fluorescence energy transfer (TR-FRET).
(§2) The following wildtype or mutant alleles of KRAS and CRAF protein have been used at the given concentrations:
KRAS (G12V) 1-169, C118S, N-terminal 6His-tag, C-terminal avi-tag (Boehringer Ingelheim in house protein prep); final assay concentration 15 nM.
(§3) CRAF Ras binding domain, GST-tag, TEV cleavage site (Boehringer Ingelheim in house protein prep); final assay concentration 15 nM.
(§4) Test compounds dissolved in DMSO were dispensed onto assay plates (Proxiplate 384 PLUS, white, PerkinElmer; 6008289) using an Access Labcyte Workstation with the Labcyte Echo 55x. For the chosen highest assay concentration of 100 μM, 150 nl of compound solution was transferred from a 10 mM DMSO compound stock solution. A series of eleven fivefold dilutions per compound was transferred to the assay plate, compound dilutions were tested in duplicates. DMSO was added as backfill to a total volume of 150 nl.
(§5) The assay runs on a fully automated robotic system. To 150 nl of compound dilution 15 μl of a mix including the respective KRAS allele, CRAF (e.g. KRAS (G12D)::CRAF; final assay concentrations see above), GTP nucleotide (Sigma G8877; final assay concentration 10 μM), Lance Eu—W1024 labeled Streptavidin (PerkinElmer, Cat No AD0063; final assay concentration 1.5 nM) and Anti-GST surelight APC (PerkinElmer, Cat No AD0059G; final assay concentration 30 nM) in assay buffer (1×PBS, 0.1% BSA, 0.05% Tween 20) are added into columns 1-23 and 15 μL of the solution without the respective KRAS allele were added to row 24.
(§6) Plates are kept at room temperature in a darkened incubator. After 60 minutes incubation time the signal is measured in a PerkinElmer Envision HTS Multilabel Reader using the TR-FRET LANCE Ultra specs from PerkinElmer.
(§7) Each plate contains 16 wells of a negative control (diluted DMSO instead of test compound; w respective KRAS allele; column 23) and 16 wells of a positive control (diluted DMSO instead of test compound; w/o respective KRAS allele; column 24).
(§8) IC50 values were calculated and analyzed with Boehringer Ingelheim's MEGALAB 50 application using a 4 parametric logistic model.
(§9) Tables of example compounds disclosed herein contain IC50 values determined using the above assays (see Table 44).

Sequence of KRAS (G12V)::CRAF protein::protein interaction (P01116 other isoform, or with tags, fused parts or gaps G12V/C118S): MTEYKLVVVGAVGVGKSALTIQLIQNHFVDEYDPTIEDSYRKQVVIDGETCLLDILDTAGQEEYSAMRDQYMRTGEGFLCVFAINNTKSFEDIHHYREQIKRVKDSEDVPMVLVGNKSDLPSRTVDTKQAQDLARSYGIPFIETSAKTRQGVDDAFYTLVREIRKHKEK

C[C@H](Oc1nc(-c2onc3c2CCC[C@@]32CCCc3sc(N)c(C#N)c32)nc2c1n(C)c(=O)n2[C@@H]1CCOC1)[C@@H]1CCCN1C [I-20] was tested. Which IC50 did it give?
Its IC50 is 21 nM.

How did the IC50 turn out when Cc1cn([C@@H]2CCOC2)c2nc(-c3onc4c3CCC[C@@]43CCCc4sc(N)c(C#N)c43)nc(O[C@@H](C)[C@@H]3CCCN3C)c12 [I-41] was run?
Its IC50 is 405 nM.

How did the IC50 turn out when CO[C@@H]1C[C@@H]([C@H](C)Oc2nc(-c3onc4c3CCC[C@@]43CCCc4sc(N)c(C#N)c43)nc3c2n(C)c(=O)n3[C@@H]2CCOC2)N(C)C1 [I-3] was run?
Its IC50 is 69 nM.

With C[C@H](Oc1nc(-c2onc3c2CCC[C@@]32CCCc3sc(N)c(C#N)c32)nc2c1n(C)c(=O)n2[C@@H]1CCOC1)[C@@H]1C[C@@H](F)CN1C [I-22] as the compound, how does the IC50 read?
The IC50 was 60 nM.

With C[C@H](Oc1nc(-c2onc3c2CCC[C@@]32CCCc3sc(N)c(C#N)c32)nc2c1n(C)c(=O)n2[C@@H]1CCOC1)[C@@H]1[C@@H](F)CCN1C [I-5] as the compound, how does the IC50 read?
Its IC50 is 266 nM.

For C[C@H](Oc1nc(-c2onc3c2CCC[C@@]32CCCc3sc(N)c(C#N)c32)nc2c1n(C)c(=O)n2[C@@H]1CCOC1)[C@@H]1C[C@H](F)CN1C [I-27], which IC50 is on record?
Its IC50 is 196 nM.

Each compound was assayed against KRAS (WT)::CRAF protein::protein interaction (Homo sapiens (Human), UniProt P01116) (assay: KRAS TR-FRET assay (KRAS WT::CRAF, GTP)). Settings: not given.
Sequence of KRAS (WT)::CRAF protein::protein interaction (P01116 other isoform, or with tags, fused parts or gaps): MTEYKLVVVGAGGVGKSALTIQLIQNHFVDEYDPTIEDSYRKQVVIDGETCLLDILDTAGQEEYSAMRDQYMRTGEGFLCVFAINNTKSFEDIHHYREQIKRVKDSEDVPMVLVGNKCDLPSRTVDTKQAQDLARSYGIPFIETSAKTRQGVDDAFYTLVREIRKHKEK
Type: binding
Method: as §1, §2
KRAS (WT) 1-169, N-terminal 6His-tag, C-terminal avi-tag (Boehringer Ingelheim in house protein prep); final assay concentration 15 nM.
as §3, §4, §5, §6, §7, §8, §9

C[C@H](Oc1nc(-c2onc3c2CCC[C@@]32CCCc3sc(N)c(C#N)c32)nc2c1n(C)c(=O)n2[C@@H]1CCOC1)[C@@H]1CCCN1C [I-20] was tested. Which IC50 did it give?
The IC50 was 50 nM.

Cc1cn([C@@H]2CCOC2)c2nc(-c3onc4c3CCC[C@@]43CCCc4sc(N)c(C#N)c43)nc(O[C@@H](C)[C@@H]3CCCN3C)c12 [I-41] was tested. Which IC50 did it give?
The IC50 was 1830 nM.

How did the IC50 turn out when CO[C@@H]1C[C@@H]([C@H](C)Oc2nc(-c3onc4c3CCC[C@@]43CCCc4sc(N)c(C#N)c43)nc3c2n(C)c(=O)n3[C@@H]2CCOC2)N(C)C1 [I-3] was run?
Its IC50 is 101 nM.

With C[C@H](Oc1nc(-c2onc3c2CCC[C@@]32CCCc3sc(N)c(C#N)c32)nc2c1n(C)c(=O)n2[C@@H]1CCOC1)[C@@H]1C[C@@H](F)CN1C [I-22] as the compound, how does the IC50 read?
Its IC50 is 133 nM.

C[C@H](Oc1nc(-c2onc3c2CCC[C@@]32CCCc3sc(N)c(C#N)c32)nc2c1n(C)c(=O)n2[C@@H]1CCOC1)[C@@H]1[C@@H](F)CCN1C [I-5] was tested. Which IC50 did it give?
Its IC50 is 657 nM.

With C[C@H](Oc1nc(-c2onc3c2CCC[C@@]32CCCc3sc(N)c(C#N)c32)nc2c1n(C)c(=O)n2[C@@H]1CCOC1)[C@@H]1C[C@H](F)CN1C [I-27] as the compound, how does the IC50 read?
Its IC50 is 462 nM.

These compounds were tested against KRAS (G12D)::CRAF protein::protein interaction (Homo sapiens (Human), UniProt P01116, G12D) (assay: KRAS TR-FRET assay (KRAS G12D::CRAF, GTP)). Settings: not given.
Sequence of KRAS (G12D)::CRAF protein::protein interaction (P01116 other isoform, or with tags, fused parts or gaps G12D): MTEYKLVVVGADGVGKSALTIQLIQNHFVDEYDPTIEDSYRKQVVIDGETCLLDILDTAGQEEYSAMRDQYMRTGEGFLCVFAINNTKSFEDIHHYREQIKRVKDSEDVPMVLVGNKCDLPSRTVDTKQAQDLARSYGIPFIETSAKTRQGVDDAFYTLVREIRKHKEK
Type: binding
Method: as §1, §2
KRAS (G12D) 1-169, N-terminal 6His-tag, C-terminal avi-tag (Xtal BioStructures, Inc.); final assay concentration 15 nM,
as §3, §4, §5, §6, §7, §8, §9

Which IC50 does the source give for C[C@H](Oc1nc(-c2onc3c2CCC[C@@]32CCCc3sc(N)c(C#N)c32)nc2c1n(C)c(=O)n2[C@@H]1CCOC1)[C@@H]1CCCN1C [I-20] here?
Its IC50 is 46 nM.

How did the IC50 turn out when Cc1cn([C@@H]2CCOC2)c2nc(-c3onc4c3CCC[C@@]43CCCc4sc(N)c(C#N)c43)nc(O[C@@H](C)[C@@H]3CCCN3C)c12 [I-41] was run?
Its IC50 is 362 nM.

Which IC50 does the source give for CO[C@@H]1C[C@@H]([C@H](C)Oc2nc(-c3onc4c3CCC[C@@]43CCCc4sc(N)c(C#N)c43)nc3c2n(C)c(=O)n3[C@@H]2CCOC2)N(C)C1 [I-3] here?
The IC50 was 71 nM.

How did the IC50 turn out when C[C@H](Oc1nc(-c2onc3c2CCC[C@@]32CCCc3sc(N)c(C#N)c32)nc2c1n(C)c(=O)n2[C@@H]1CCOC1)[C@@H]1C[C@@H](F)CN1C [I-22] was run?
The IC50 was 138 nM.

Which IC50 does the source give for C[C@H](Oc1nc(-c2onc3c2CCC[C@@]32CCCc3sc(N)c(C#N)c32)nc2c1n(C)c(=O)n2[C@@H]1CCOC1)[C@@H]1[C@@H](F)CCN1C [I-5] here?
The IC50 was 449 nM.

Which IC50 does the source give for C[C@H](Oc1nc(-c2onc3c2CCC[C@@]32CCCc3sc(N)c(C#N)c32)nc2c1n(C)c(=O)n2[C@@H]1CCOC1)[C@@H]1C[C@H](F)CN1C [I-27] here?
Its IC50 is 410 nM.

Each compound was assayed on Ba/F3 cells KRAS G12D (assay: Ba/F3 proliferation assay (KRAS G12D)). Settings: Mus musculus, BaF3, 72 h, AlamarBlue viability.
Type: cell-based
Procedure, shortened: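 Ba/F3 cells retrovirally transduced with KRAS G12 mutant, puromycin-selected, grown IL-3-independent; seeded in RPMI-1640 + 10% FCS without IL-3. Logarithmic compound dose series in duplicate, 72 h at 37° C., AlamarBlue fluorescence as % of DMSO control; IC50 from four-parameter non-linear regression.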

Which IC50 does the source give for C[C@H](Oc1nc(-c2onc3c2CCC[C@@]32CCCc3sc(N)c(C#N)c32)nc2c1n(C)c(=O)n2[C@@H]1CCOC1)[C@@H]1CCCN1C [I-20] here?
The IC50 was 9 nM.

How did the IC50 turn out when Cc1cn([C@@H]2CCOC2)c2nc(-c3onc4c3CCC[C@@]43CCCc4sc(N)c(C#N)c43)nc(O[C@@H](C)[C@@H]3CCCN3C)c12 [I-41] was run?
The IC50 was 106 nM.

For CO[C@@H]1C[C@@H]([C@H](C)Oc2nc(-c3onc4c3CCC[C@@]43CCCc4sc(N)c(C#N)c43)nc3c2n(C)c(=O)n3[C@@H]2CCOC2)N(C)C1 [I-3], which IC50 is on record?
Its IC50 is 14 nM.

Which IC50 does the source give for C[C@H](Oc1nc(-c2onc3c2CCC[C@@]32CCCc3sc(N)c(C#N)c32)nc2c1n(C)c(=O)n2[C@@H]1CCOC1)[C@@H]1C[C@@H](F)CN1C [I-22] here?
Its IC50 is 22 nM.

Which IC50 does the source give for C[C@H](Oc1nc(-c2onc3c2CCC[C@@]32CCCc3sc(N)c(C#N)c32)nc2c1n(C)c(=O)n2[C@@H]1CCOC1)[C@@H]1[C@@H](F)CCN1C [I-5] here?
Its IC50 is 68 nM.

For C[C@H](Oc1nc(-c2onc3c2CCC[C@@]32CCCc3sc(N)c(C#N)c32)nc2c1n(C)c(=O)n2[C@@H]1CCOC1)[C@@H]1C[C@H](F)CN1C [I-27], which IC50 is on record?
The IC50 was 55 nM.
